One test has as its target human CB1 receptors (Homo sapiens (Human), UniProt P21554). Kind of test: cAMP assay, CHO cells expressing human CB1 receptors. In kind it is cell-based. An outline of the steps:
(§1)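 Read-out is TR-FRET (excitation 355 nm, emission 730/645 nm) after cell lysis, with cAMP content taken from a standard curve and EC50 calculated. Cells were pretreated with 1 mM IBMX in Krebs Ringer bicarbonate buffer, then incubated with compounds for 30 min at 30 °C.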

The next test has as its target human CB2 receptors (Homo sapiens (Human), UniProt P34972). Put plainly: cAMP assay, CHO cells expressing human CB2 receptors. It counts as cell-based. A digest of the protocol:
as §1
A general note: Changes in cAMP serve as a functional read-out for many G protein-coupled receptors.

Where [1] appears, read: CHO cells expressing human CB1, cAMP, read-out: human CB1 EC50.
The mark [2] stands for this setting: CHO cells expressing human CB2, cAMP, read-out: human CB2 EC50.

One may read the EC50 as the concentration giving half of the maximal effect.

Molecules are shown by their SMILES. Where two headings read alike, the source gives them in different places.

Chain of human CB2 receptors (P34972 whole entry): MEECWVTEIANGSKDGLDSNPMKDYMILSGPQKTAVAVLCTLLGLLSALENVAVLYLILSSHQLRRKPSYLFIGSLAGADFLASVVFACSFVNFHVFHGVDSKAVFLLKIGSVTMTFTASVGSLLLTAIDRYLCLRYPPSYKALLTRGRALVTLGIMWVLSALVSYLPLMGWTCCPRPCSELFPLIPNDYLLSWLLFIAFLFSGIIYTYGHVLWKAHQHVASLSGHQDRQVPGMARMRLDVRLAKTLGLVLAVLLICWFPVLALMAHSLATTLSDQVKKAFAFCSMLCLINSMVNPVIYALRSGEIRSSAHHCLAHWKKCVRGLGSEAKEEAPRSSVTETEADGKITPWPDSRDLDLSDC
Chain of human CB1 receptors (P21554 whole entry): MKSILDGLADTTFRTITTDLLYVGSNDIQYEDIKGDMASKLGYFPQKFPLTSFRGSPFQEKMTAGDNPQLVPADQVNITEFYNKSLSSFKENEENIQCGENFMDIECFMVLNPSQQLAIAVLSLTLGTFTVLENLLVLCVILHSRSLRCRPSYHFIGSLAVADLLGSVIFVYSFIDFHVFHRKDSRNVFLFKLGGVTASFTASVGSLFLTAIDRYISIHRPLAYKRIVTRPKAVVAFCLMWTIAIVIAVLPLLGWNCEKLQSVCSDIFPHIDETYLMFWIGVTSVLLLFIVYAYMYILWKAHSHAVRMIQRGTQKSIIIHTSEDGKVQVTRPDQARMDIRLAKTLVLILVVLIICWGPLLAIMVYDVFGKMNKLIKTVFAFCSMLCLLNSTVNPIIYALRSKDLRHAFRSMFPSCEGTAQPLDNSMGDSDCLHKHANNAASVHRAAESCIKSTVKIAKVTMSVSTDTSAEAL

Consider `Cc1nc([C@@](C)(CC2CC2)NC(=O)c2ccc(C3CC3)c(OCC3CC3)n2)no1` [Example 358, 5-Cyclopropyl-6-cyclopropylmethoxy-pyridine-2-carboxylic acid [(−)-2-cyclopropyl-1-methyl-1-(5-methyl-[1,2,4]oxadiazol-3-yl)-ethyl]-amide], for which the concentration for a half-maximal effect (EC50) at human CB1 receptors (setting [1]) was found to be 489 nM; on human CB2 receptors (setting [2]), 4.9 nM.
In the same order, the values of `CC(C)(C)NC(=O)c1ccc(N2CC(F)(F)C2)c(OCC2CC2)n1` [Example 359, 6-Cyclopropylmethoxy-5-(3,3-difluoro-azetidin-1-yl)-pyridine-2-carboxylic acid tert-butylamide] are greater than 10000 nM and 6.9 nM.
In the same order, the values of `CCOC(=O)C(CC)(CC)NC(=O)c1ccc(C2CC2)c(S(=O)(=O)CC(C)C)n1` [Example 360, 2-{[5-Cyclopropyl-6-(2-methyl-propane-1-sulfonyl)-pyridine-2-carbonyl]-amino}-2-ethyl-butyric acid ethyl ester] are 88.5 nM and 2.4 nM.
In the same order, the values of `CNC(=O)[C@H](CC(C)(C)C)NC(=O)c1ccc(C2CC2)c(S(=O)(=O)CC(C)C)n1` [Example 361, 5-Cyclopropyl-6-(2-methyl-propane-1-sulfonyl)-pyridine-2-carboxylic acid ((S)-3,3-dimethyl-1-methylcarbamoyl-butyl)-amide] are greater than 10000 nM and 42.5 nM.
With `O=C(N[C@H]1CCOC1=O)c1ccc(C2CC2)c(OCC2CC2)n1` [Example 362, 5-Cyclopropyl-6-cyclopropylmethoxy-pyridine-2-carboxylic acid ((S)-2-oxo-tetrahydro-furan-3-yl)-amide], the 50% effective concentration (EC50) on human CB1 receptors (setting [1]) was greater than 10000 nM; at human CB2 receptors (setting [2]), 441 nM.
As to `CC(C)(C)OC(=O)N(CC1CC1)NC(=O)c1ccc(C2CC2)c(OCC2CC2)n1` [Example 363, N′-(5-Cyclopropyl-6-cyclopropylmethoxy-pyridine-2-carbonyl)-N-cyclopropylmethyl-hydrazinecarboxylic acid tert-butyl ester], the values for the EC50 on human CB1 receptors (setting [1]) and on human CB2 receptors (setting [2]) were greater than 10000 nM and 38 nM, respectively.
Regarding `CNC(=O)[C@@H](NC(=O)c1ccc(C2CC2)c(S(=O)(=O)CC(C)C)n1)C(C)(C)C` [Example 364, 5-Cyclopropyl-6-(2-methyl-propane-1-sulfonyl)-pyridine-2-carboxylic acid ((S)-2,2-dimethyl-1-methylcarbamoyl-propyl)-amide], the EC50 was greater than 10000 nM on human CB1 receptors and 12.9 nM at human CB2 receptors.
As for `CC(C)CS(=O)(=O)c1nc(C(=O)N[C@@H](c2cccnc2)C(F)(F)F)ccc1C1CC1` [Example 365, 5-Cyclopropyl-6-(2-methyl-propane-1-sulfonyl)-pyridine-2-carboxylic acid ((S)-2,2,2-trifluoro-1-pyridin-3-yl-ethyl)-amide], the EC50 was greater than 10000 nM on human CB1 receptors (setting [1]) and 13.9 nM at human CB2 receptors (setting [2]).
For `CC(C)C[C@H](NC(=O)c1ccc(C2CC2)c(OCC2CC2)n1)C(=O)OC(C)(C)C` [Example 366, (S)-2-[(5-Cyclopropyl-6-cyclopropylmethoxy-pyridine-2-carbonyl)-amino]-4-methyl-pentanoic acid tert-butyl ester], in that order: greater than 10000 nM and 26.4 nM.
Take `CCC(CC)(NC(=O)c1ccc(C2CC2)c(S(=O)(=O)CC(C)C)n1)C(=O)NC` [Example 367, 5-Cyclopropyl-6-(2-methyl-propane-1-sulfonyl)-pyridine-2-carboxylic acid (1-ethyl-1-methylcarbamoyl-propyl)-amide]: the EC50 at human CB1 receptors (setting [1]) was greater than 10000 nM; at human CB2 receptors (setting [2]), 195 nM.
For `CC(C)(C)NC(=O)c1ccc(C2CC2)c(OCC2CC2)n1` [Example 368, 5-Cyclopropyl-6-cyclopropylmethoxy-pyridine-2-carboxylic acid tert-butylamide], in that order: greater than 10000 nM and 26.3 nM.
In the case of `CC(C)(C)NC(=O)c1ccc(C2CC2)c(OCC2CCCO2)n1` (stereo not shown) [Example 369, 5-Cyclopropyl-6-(tetrahydro-furan-2-ylmethoxy)-pyridine-2-carboxylic acid tert-butylamide], the EC50 at human CB1 receptors (setting [1]) is greater than 10000 nM; at human CB2 receptors (setting [2]), 12 nM.
Turning to `CC1(NC(=O)c2ccc(N3CC(F)(F)C3)c(OCC3CC3)n2)COC1` [Example 370, 6-Cyclopropylmethoxy-5-(3,3-difluoro-azetidin-1-yl)-pyridine-2-carboxylic acid (3-methyl-oxetan-3-yl)-amide], the values for the EC50 at human CB1 receptors (setting [1]) and at human CB2 receptors (setting [2]) were greater than 10000 nM and 96.4 nM, respectively.
For `O=C(NN1CCCOC1=O)c1ccc(C2CC2)c(OCC2CC2)n1` [Example 371, 5-Cyclopropyl-6-cyclopropylmethoxy-pyridine-2-carboxylic acid (2-oxo-[1,3]oxazinan-3-yl)-amide], in that order: greater than 10000 nM and 436 nM.
For `CC(C)C[C@H](NC(=O)c1ccc(C2CC2)c(OC(C)C(F)(F)F)n1)C(N)=O` (stereo partly drawn) [Example 372, 5-Cyclopropyl-6-(2,2,2-trifluoro-1-methyl-ethoxy)-pyridine-2-carboxylic acid ((S)-1-carbamoyl-3-methyl-butyl)-amide], the EC50 on human CB1 receptors is greater than 10000 nM; at human CB2 receptors, 53.4 nM.
Regarding `Cc1nc(C(C)(C)NC(=O)c2ccc(C3CC3)c(OC(C)C(F)(F)F)n2)no1` (stereo not shown) [Example 373, 5-Cyclopropyl-6-(2,2,2-trifluoro-1-methyl-ethoxy)-pyridine-2-carboxylic acid [1-methyl-1-(5-methyl-[1,2,4]oxadiazol-3-yl)-ethyl]-amide], the EC50 was greater than 10000 nM at human CB1 receptors (setting [1]) and 127 nM on human CB2 receptors (setting [2]).
Regarding `NC(=O)[C@@H](NC(=O)c1ccc(C2CC2)c(OCC2CC2)n1)C1CC1` [Example 374, 5-Cyclopropyl-6-cyclopropylmethoxy-pyridine-2-carboxylic acid ((+)-carbamoyl-cyclopropyl-methyl)-amide], the values for the EC50 at human CB1 receptors (setting [1]) and at human CB2 receptors (setting [2]) were greater than 10000 nM and 28.1 nM, respectively.
For `NC(=O)[C@H](NC(=O)c1ccc(C2CC2)c(OCC2CC2)n1)C1CC1` [Example 375, 5-Cyclopropyl-6-cyclopropylmethoxy-pyridine-2-carboxylic acid ((−)-carbamoyl-cyclopropyl-methyl)-amide], in that order: greater than 10000 nM and 358 nM.
On to `NC(=O)[C@@H](NC(=O)c1ccc(N2CC(F)(F)C2)c(OCC2CC2)n1)C1CC1` [Example 376, 6-Cyclopropylmethoxy-5-(3,3-difluoro-azetidin-1-yl)-pyridine-2-carboxylic acid ((+)-carbamoyl-cyclopropyl-methyl)-amide], for which the EC50 on human CB1 receptors (setting [1]) was greater than 10000 nM; at human CB2 receptors (setting [2]) it was 59.5 nM.
For `NC(=O)[C@H](NC(=O)c1ccc(N2CC(F)(F)C2)c(OCC2CC2)n1)C1CC1` [Example 377, 6-Cyclopropylmethoxy-5-(3,3-difluoro-azetidin-1-yl)-pyridine-2-carboxylic acid ((−)-carbamoyl-cyclopropyl-methyl)-amide], in that order: greater than 10000 nM and 178 nM.
As for `O=C(NC1(C(F)(F)F)CC1)c1ccc(N2CC(F)(F)C2)c(OCC2CC2)n1` [Example 378, 6-Cyclopropylmethoxy-5-(3,3-difluoro-azetidin-1-yl)-pyridine-2-carboxylic acid (1-trifluoromethyl-cyclopropyl)-amide], the EC50 was greater than 10000 nM at human CB1 receptors (setting [1]) and 6.4 nM on human CB2 receptors (setting [2]).
Take `Cc1nc([C@](C)(NC(=O)c2ccc(C3CC3)c(S(=O)(=O)CC(C)C)n2)C2CC2)no1` [Example 381, (+)-5-Cyclopropyl-6-(2-methyl-propane-1-sulfonyl)-pyridine-2-carboxylic acid [1-cyclopropyl-1-(5-methyl-[1,2,4]oxadiazol-3-yl)-ethyl]-amide]: the figures for the EC50 at human CB1 receptors (setting [1]) and on human CB2 receptors (setting [2]) were 240 nM and 11.4 nM, respectively.
For the molecule `Cc1nc([C@@](C)(NC(=O)c2ccc(C3CC3)c(S(=O)(=O)CC(C)C)n2)C2CC2)no1` [Example 382, (−)-5-Cyclopropyl-6-(2-methyl-propane-1-sulfonyl)-pyridine-2-carboxylic acid [1-cyclopropyl-1-(5-methyl-[1,2,4]oxadiazol-3-yl)-ethyl]-amide], the EC50 was greater than 10000 nM at human CB1 receptors (setting [1]) and 50.8 nM on human CB2 receptors (setting [2]).
